We go through 9 compounds from ChEMBL document CHEMBL4219236, “Synthesis of some novel dimethine, bis-dimethine cyanine dyes and octacosamethine cyanine dyes endowed with promising biological potency against (HepG2), (Hela), (MCF-7), (MIA), (SN12C) and (H358) cell lines” (Bioorg Med Chem Lett, 2018).

Structures are written as SMILES. Values after ≈ are worked out from the molar mass of the structure shown.

Type in all cases: functional, cell-based
Assay [1] has as its system SN12C. Description: Cytotoxicity against human SN12C cells assessed as decrease in cell viability after 96 hrs.
Assay [2] has as its system NCI-H358. Put plainly: Cytotoxicity against human NCI-H358 cells assessed as decrease in cell viability after 96 hrs. Particulars: NCI-H358, 96 h.
The test system of assay [3] is HeLa. Put plainly: Cytotoxicity against human HeLa cells assessed as decrease in cell viability after 96 hrs.
In assay [4] the test system is MIA PaCa-2. Description: Cytotoxicity against human MIAPaCa2 cells assessed as decrease in cell viability after 96 hrs. To be noted: MIA PaCa-2, 96 h.
Assay [5] deals with HepG2. Put plainly: Cytotoxicity against human HepG2 cells assessed as decrease in cell viability after 96 hrs. To be noted: HepG2, 96 h.
Assay [6] concerns MCF7. Put plainly: Cytotoxicity against human MCF7 cells assessed as decrease in cell viability after 96 hrs. To be noted: MCF7, 96 h.

As a reminder, the IC50 is the midpoint of a concentration-inhibition curve. As for `O=c1[nH]cc(F)c(=O)[nH]1` [FLUOROURACIL], the concentration for half-maximal inhibition (IC50) worked out at 6.5 µg/mL (≈ 50 µM) in assay [1], 6.9 µg/mL (≈ 53 µM) in assay [2], 3.2 µg/mL (≈ 24.6 µM) in assay [3] and 3.5 µg/mL (≈ 26.9 µM) in assay [4].
On to `O=S(=O)([O-])c1ccccc1/C=C(\c1ccccc1)c1cccc[n+]1C1CCC([n+]2ccccc2/C(=C/c2ccccc2S(=O)(=O)[O-])c2ccccc2)CC1.[Br-].[Br-].[Na+].[Na+]` (configuration not stated), for which the half-maximal inhibitory concentration (IC50) in assay [5] is 25.4 µg/mL; in assay [1], 26.3 µg/mL; in assay [2] it was 26.3 µg/mL; in assay [3], 32.3 µg/mL; in assay [4] it was 33.5 µg/mL; in assay [6] it was 22.5 µg/mL.
Turning to `C(=C(/c1ccccc1)c1cccc[n+]1C1CCC([n+]2ccccc2Cc2ccccc2)CC1)/c1cc2c3c(c1)CCCN3CCC2.[Br-].[Br-]` (configuration not stated), the half-maximal inhibitory concentration (IC50) was 62.5 µg/mL in assay [5]; 86.5 µg/mL in assay [1]; 36.5 µg/mL in assay [2]; 101 µg/mL in assay [3]; 101 µg/mL in assay [4]; 96.9 µg/mL in assay [6].
For `C1=Cc2cc3cc(/C=C(\c4ccccc4)c4cccc[n+]4C4CCC([n+]5ccccc5/C(=C/c5cc6cc7nc(cc8ccc(cc9nc(cc5[nH]6)C=C9)[nH]8)C=C7)c5ccccc5)CC4)c(cc4nc(cc5ccc(cc1n2)[nH]5)C=C4)[nH]3.[Br-].[Br-]` (configuration not stated), the IC50 was 33 µg/mL in assay [5]; 31.1 µg/mL in assay [1]; 49.6 µg/mL in assay [2]; 35.3 µg/mL in assay [3]; 45.6 µg/mL in assay [4]; 45.6 µg/mL in assay [6].
Turning to `O=CC1=Cc2cc3cc(/C=C(\c4ccccc4)c4cccc[n+]4C4CCC([n+]5ccccc5/C(=C/c5cc6cc7nc(cc8ccc(cc9nc(cc5[nH]6)C=C9)[nH]8)C(C=O)=C7)c5ccccc5)CC4)c(cc4nc(cc5ccc(cc1n2)[nH]5)C=C4)[nH]3.[Br-].[Br-]` (configuration not stated), the 50% inhibitory concentration (IC50) stood at 21 µg/mL in assay [5]; 20 µg/mL in assay [1]; 15.2 µg/mL in assay [2]; 21 µg/mL in assay [3]; 20 µg/mL in assay [4]; 16 µg/mL in assay [6].
Consider `C1=Cc2cc3cc(/C=C(\c4ccccc4)c4cccc[n+]4C4CCC([n+]5ccccc5Cc5ccccc5)CC4)c(cc4nc(cc5ccc(cc1n2)[nH]5)C=C4)[nH]3.[Br-].[Br-]` (configuration not stated), for which the IC50 worked out at 48 µg/mL in assay [5]; 38.9 µg/mL in assay [1]; 38.1 µg/mL in assay [2]; 40.3 µg/mL in assay [3]; 45.9 µg/mL in assay [4]; 45.9 µg/mL in assay [6].
`O=S(=O)([O-])c1ccccc1/C=C(\c1ccccc1)c1cccc[n+]1C1CCC([n+]2ccccc2Cc2ccccc2)CC1.[Br-].[Br-].[Na+]` (configuration not stated): the half-maximal inhibitory concentration (IC50) in assay [5] is 32.2 µg/mL; in assay [1] it was 25 µg/mL; in assay [2] it was 30 µg/mL; in assay [3], 39.6 µg/mL; in assay [4] it was 50 µg/mL; in assay [6], 29 µg/mL.
As to `C(=C(/c1ccccc1)c1cccc[n+]1C1CCC([n+]2ccccc2/C(=C/c2cc3c4c(c2)CCCN4CCC3)c2ccccc2)CC1)/c1cc2c3c(c1)CCCN3CCC2.[Br-].[Br-]` (configuration not stated), the IC50 was 53.1 µg/mL in assay [5]; 52.6 µg/mL in assay [1]; 75.6 µg/mL in assay [2]; 49.8 µg/mL in assay [3]; 55.6 µg/mL in assay [4]; 35.6 µg/mL in assay [6].
As to `O=CC1=Cc2cc3cc(/C=C(\c4ccccc4)c4cccc[n+]4C4CCC([n+]5ccccc5Cc5ccccc5)CC4)c(cc4nc(cc5ccc(cc1n2)[nH]5)C=C4)[nH]3.[Br-].[Br-]` (configuration not stated), the IC50 was determined as 25.2 µg/mL in assay [5]; 20.3 µg/mL in assay [1]; 23.3 µg/mL in assay [2]; 23.7 µg/mL in assay [3]; 29.3 µg/mL in assay [4]; 19.1 µg/mL in assay [6].
